Test results: patent US20240423948A1, “5-HYDROXYMETHYLFURFURAL FOR THE TREATMENT OF MITOCHONDRIAL DYSFUNCTION” (D-CAP LLC, priority 2021, published 2024)

Key:
Assay type in all cases: cell-based, murine
Hepa1-6 cell line [1] = test: Mitochondrial reactive oxygen species (MitoSOX Red); details: for MitoSOX levels: 24 h
Protocol: Cell culture: The Hepa1-6 cell line (#CRL-1830, ATCC) was cultured in DMEM culture medium containing 1 g/L glucose, 10% fetal bovine serum, 2 mM glutamine, 100 U/mL Penicillin and 100 μg/mL Streptomycin and 30 μM oleic acid. Cells were seeded at a density of 20 000 cells per well in 96 well plates and incubated for overnight to allow the cells to attach at 37° C. with 5% CO2. Cells were then supplemented with the test substances at indicated concentrations and incubated for indicated time periods (24 h). For all assays the test substances were diluted in 10% DMSO/PBS further diluted with culture medium and added to the cells at the indicated concentrations with a final DMSO concentration of 0.01%. Vehicle controls were treated with 0.01% DMSO. Mitochondrial reactive oxygen species (ROS); Cells were treated for 24 h with the test substances at the indicated concentration, as well as positive (10 μM FCCP and 1 μM oligomycin) and negative control. Mitochondrial ROS was detected using MitoSOX™ Red mitochondrial superoxide indicator (#M36008, Invitrogen/Thermo Fisher Scientific). After 24 h treatment of the substances, cells were washed with 100 μl assay buffer (DMEM without phenol red with 4 mM L-glutamine, 4.5 g/L glucose and 1 mM Na-Pyruvate, pH7.4) three times, and 100 μl of […] MitoSOX Red (5 mM MitoSOX™ Red stock solution prepared as indicated by the manufacturer's instruction diluted in 1:2 500 in assay buffer) was added per well, followed by incubation for 30min at 37° C. with 5% CO2. After the incubation cells were washed with 100 μl assay buffer and 100 μl assay buffer was added per well. Fluorescence was measured at excitation 510 nm and emission 580 nm. Use flat, black bottom plates were used.

Hepa1-6 cell line [2] = test: ATP content (CellTiter-Glo Assay); details: for ATP levels: single agent, 24 h, lower (0.1-100 μM) and higher dose range, FIG. 1A and 1D
Protocol: Cell culture: The Hepa1-6 cell line (#CRL-1830, ATCC) was cultured in DMEM culture medium containing 1 g/L glucose, 10% fetal bovine serum, 2 mM glutamine, 100 U/mL Penicillin and 100 μg/mL Streptomycin and 30 μM oleic acid. Cells were seeded at a density of 20 000 cells per well in 96 well plates and incubated for overnight to allow the cells to attach at 37° C. with 5% CO2. Cells were then supplemented with the test substances at indicated concentrations and incubated for indicated time periods (24 h). For all assays the test substances were diluted in 10% DMSO/PBS further diluted with culture medium and added to the cells at the indicated concentrations with a final DMSO concentration of 0.01%. Vehicle controls were treated with 0.01% DMSO. ATP content: Cells were treated for 24 h with the test substances at the indicated concentrations. The cellular ATP content was assessed using the CellTiter-Glo Assay (#G7571, Promega) as per the manufacturer's instructions. Luminescence was detected in a plate reader spectrophotometer. The results were normalized to the luminescence intensity measured in vehicle treated cells and positive controls treated with 0.1% Triton-X, as well as 10 μM FCCP and 1 μM oligomycin. Flat, white bottom plate.

Hepa1-6 cell line [3] = test: Cytotoxicity (CyQuant LDH Cytotoxicity Assay); details: single agent, 24 h, lower and higher dose range, FIG. 1C and 1F
Protocol: Cells were seeded at a density of 20 000 cells per well in 96 well plates and incubated for overnight to allow the cells to attach at 37° C. with 5% CO2. Cells were then supplemented with the test substances at indicated concentrations and incubated for indicated time periods (24 h). For all assays the test substances were diluted in 10% DMSO/PBS further diluted with culture medium and added to the cells at the indicated concentrations with a final DMSO concentration of 0.01%. Vehicle controls were treated with 0.01% DMSO. Cytotoxicity: Cytotoxicity was assessed using the CyQuant™ LDH Cytotoxicity Assay Kit (#C20300/C20301, Thermo Fisher). After cells were cultured with the test substances for 24 h, 50 μL of the cell culture medium were transferred to a new 96 well plate and the cytotoxicity assay was performed as per the manufacturer's instructions. Absorbance was measured at 490 nm and background at 680 nm. The signal intensity of untreated cells was considered as the background signal of spontaneous LDH release and subtracted from all measurements. Cytotoxicity was expressed as the percentage of maximum signal intensity observed in freshly lysed cells. Flat, clear plate. 10 μM FCCP, 1 μM oligomycin, 0.1% Triton X as positive control.

[4] = single agent, lower and higher dose range, FIG. 1B and 1E

SMILES	MitoSOX levels (Hepa1-6 cell line [1]; positive control, 1 μM oligomycin)	effect on mitochondrial function (mitochondrial ROS levels) compared with metformin (Hepa1-6 cell line [1]; FIG. 1 legend, overall)	effect on mitochondrial function (MitoSOX) compared with Metformin (Hepa1-6 cell line [1]; lower dose range (physiological doses of Metformin), FIG. 1B)	MitoSOX levels (Hepa1-6 cell line [1]; [4])	effect on mitochondrial function (ATP levels) compared with metformin (Hepa1-6 cell line [2]; FIG. 1 legend, overall)	effect on mitochondrial function (ATP levels) compared with metformin (Hepa1-6 cell line [2]; lower dose range (physiological doses of Metformin), FIG. 1A)	ATP levels (Hepa1-6 cell line [2])	cytotoxicity (LDH) (Hepa1-6 cell line [3])
CC[C@H]1/C=C/C=C/C[C@@H](C)[C@H](O)[C@@](C)(O)C(=O)[C@@H](C)[C@H](O)[C@@H](C)C(=O)[C@@H](C)[C@H](O)[C@@H](C)/C=C/C(=O)O[C@@H]2[C@H](C)[C@H](CC1)O[C@]1(CC[C@H](C)[C@H](C[C@@H](C)O)O1)[C@H]2C [oligomycin, reference compound]	no statistically significance							
O=Cc1ccc(CO)o1 [5-HMF, 5-Hydroxymethylfurfural]		comparable to that of metformin	milder than that of Metformin	trend of slight increase of MitoSOX levels	comparable to that of metformin	milder than that of Metformin	ATP reduction	without cytotoxic effects
CN(C)C(=N)N=C(N)N [Metformin, reference compound]				trend of slight increase of MitoSOX levels			ATP reduction	without cytotoxic effects
